US10105357B2, “Indication of antibiotic drugs for preparation of cancer inhibition pharmaceutical composition” (LAUNX BIOMEDICAL CO., LTD., priority 2014, dated 2018)
Like-named read-outs stand apart in the source and are kept apart here.

Legend:
[1] = tested on: TSGH-8301 (Urinary Bladder Carcinoma); experiment: Cell viability analysis, bladder cancer TSGH-8301; assay type: cell-based, human; settings: Homo sapiens, 72 h
[2] = tested on: Hep3B (hepatocellular carcinoma); experiment: Cell viability analysis, hepatic cancer Hep3B; assay type: cell-based, human; settings: Homo sapiens, Hep3B, 72 h, read-out: The results of antibiotic drug inhibiting cancer cell lines (cell viability analysis), Hep3B
[3] = tested on: NIH: OVCAR-3; experiment: Cell viability analysis, ovarian cancer NIH: OVCAR-3; assay type: cell-based, human; settings: Homo sapiens, OVCAR-3, 72 h, read-out: The results of antibiotic drug inhibiting cancer cell lines (cell viability analysis), NIH-OVCAR-3
[4] = tested on: A375 (Amelanotic Melanoma); experiment: Cell viability analysis, skin cancer A375; assay type: cell-based, human; settings: Homo sapiens, A-375, 72 h
[5] = tested on: LoVo (Colorectal Adenocarcinoma); experiment: Cell viability analysis, colon cancer LoVo; assay type: cell-based, human; settings: Homo sapiens, LoVo, 72 h
[6] = tested on: BCC (basal cell carcinoma); experiment: Cell viability analysis, skin cancer BCC; assay type: cell-based, human; settings: Homo sapiens, 72 h, read-out: The results of antibiotic drug inhibiting cancer cell lines (cell viability analysis), BCC
[7] = tested on: HepG2 (Hepatocellular Carcinoma); experiment: Cell viability analysis, hepatic cancer HepG2; assay type: cell-based, human; settings: Homo sapiens, HepG2, 72 h
[8] = tested on: HCT116 (p53+) (Colorectal Carcinoma)
[9] = tested on: HL-60 (Acute Promyelocytic Leukemia); experiment: Cell viability analysis, leukemia HL-60; assay type: cell-based, human; settings: Homo sapiens, HL-60, 72 h, read-out: cell viability (survival rate), HL-60, drug 10 μM, 72 hours, WST-1, OD450 nm
[10] = tested on: cancer cell lines; experiment: Cell viability analysis (WST-1) on cancer cell lines; assay type: cell-based, human; settings: drug 10 μM, 72 hours, WST-1; Table 3
[11] = tested on: AGS (Gastric Adenocarcinoma); experiment: Cell viability analysis, gastric cancer AGS; assay type: cell-based, human; settings: Homo sapiens, 72 h
[12] = tested on: PC3 (p53−) (Prostate Adenocarcinoma); experiment: Cell viability analysis, prostate cancer PC3; assay type: cell-based, human; settings: Homo sapiens, 72 h
[13] = tested on: SAS (Tongue squamous cell carcinoma); experiment: Cell viability analysis, tongue cancer SAS; assay type: cell-based, human; settings: Homo sapiens, 72 h, read-out: The results of antibiotic drug inhibiting cancer cell lines (cell viability analysis), SAS
[14] = tested on: T24; experiment: Cell viability analysis, bladder cancer T24; assay type: cell-based, human; settings: Homo sapiens, T-24, 72 h, read-out: The results of antibiotic drug inhibiting cancer cell lines (cell viability analysis), T24
[15] = tested on: TOV-21G; experiment: Cell viability analysis, ovarian cancer TOV-21G; assay type: cell-based, human; settings: Homo sapiens, TOV21G, 72 h, read-out: The results of antibiotic drug inhibiting cancer cell lines (cell viability analysis), TOV-21G
[16] = tested on: AsPC-1; experiment: Cell viability analysis, pancreatic cancer AsPC-1; assay type: cell-based, human; settings: Homo sapiens, ASPC1, 72 h, read-out: The results of antibiotic drug inhibiting cancer cell lines (cell viability analysis), AsPC-1
[17] = tested on: HeLa (Cervix Adenocarcinoma); experiment: Cell viability analysis, cervical cancer HeLa; assay type: cell-based, human; settings: Homo sapiens, HeLa, 72 h
[18] = tested on: U-2OS; experiment: Cell viability analysis, osteosarcoma U-2OS; assay type: cell-based, human; settings: Homo sapiens, U2OS, 72 h, read-out: The results of antibiotic drug inhibiting cancer cell lines (cell viability analysis), U2OS
[19] = tested on: BxPC-3; experiment: Cell viability analysis, pancreatic cancer BxPC-3; assay type: cell-based, human; settings: Homo sapiens, BXPC-3, 72 h, read-out: The results of antibiotic drug inhibiting cancer cell lines (cell viability analysis), BxPC-3
[20] = tested on: HI650 (Lung Adenocarcinoma); experiment: Cell viability analysis, lung cancer HI650; assay type: cell-based, human; settings: Homo sapiens, NCI-H1650, 72 h
[21] = tested on: A549 (Lung Adenocarcinoma); experiment: Cell viability analysis, lung cancer A549; assay type: cell-based, human; settings: Homo sapiens, A549, 72 h
[22] = tested on: C-33A (Cervical carcinoma); experiment: Cell viability analysis, cervical cancer C-33A; assay type: cell-based, human; settings: Homo sapiens, C-33-A, 72 h, read-out: The results of antibiotic drug inhibiting cancer cell lines (cell viability analysis), C-33A
[23] = tested on: MKN-45 (Gastric Adenocarcinoma); experiment: Cell viability analysis, gastric cancer MKN-45; assay type: cell-based, human; settings: Homo sapiens, MKN-45, 72 h
[24] = tested on: MDA-MB-231 (Mammary Gland, Adenocarcinoma); experiment: Cell viability analysis, breast cancer MDA-MB-231; assay type: cell-based, human; settings: Homo sapiens, MDA-MB-231, 72 h, read-out: The results of antibiotic drug inhibiting cancer cell lines (cell viability analysis), MDA-MB231
[25] = read-out: The results of antibiotic drug inhibiting cancer cell lines (cell viability analysis), TSGH-8301, TSGH-8301, repeated experiment
[26] = read-out: cell viability (survival rate), TSGH, drug 10 μM, 72 hours, WST-1, OD450 nm
[27] = read-out: The results of antibiotic drug inhibiting cancer cell lines (cell viability analysis), A375, A375, repeated experiment
[28] = read-out: cell viability (survival rate), A375, drug 10 μM, 72 hours, WST-1, OD450 nm
[29] = read-out: The results of antibiotic drug inhibiting cancer cell lines (cell viability analysis), LoVo, repeated experiment
[30] = read-out: cell viability (survival rate), LoVo, drug 10 μM, 72 hours, WST-1, OD450 nm
[31] = read-out: The results of antibiotic drug inhibiting cancer cell lines (cell viability analysis), HepG2, HepG2, repeated experiment
[32] = read-out: cell viability (survival rate), HepG2, drug 10 μM, 72 hours, WST-1, OD450 nm
[33] = read-out: The results of antibiotic drug inhibiting cancer cell lines (cell viability analysis), AGS, repeated experiment
[34] = read-out: cell viability (survival rate), AGS, drug 10 μM, 72 hours, WST-1, OD450 nm
[35] = read-out: The results of antibiotic drug inhibiting cancer cell lines (cell viability analysis), PC-3, PC-3, repeated experiment
[36] = read-out: cell viability (survival rate), PC3, drug 10 μM, 72 hours, WST-1, OD450 nm
[37] = read-out: The results of antibiotic drug inhibiting cancer cell lines (cell viability analysis), HeLa, repeated experiment
[38] = read-out: cell viability (survival rate), HeLa, drug 10 μM, 72 hours, WST-1, OD450 nm
[39] = read-out: The results of antibiotic drug inhibiting cancer cell lines (cell viability analysis), H1650, H1650, repeated experiment
[40] = read-out: cell viability (survival rate), H1650, drug 10 μM, 72 hours, WST-1, OD450 nm
[41] = read-out: The results of antibiotic drug inhibiting cancer cell lines (cell viability analysis), A549, A549, repeated experiment
[42] = read-out: cell viability (survival rate), A549, drug 10 μM, 72 hours, WST-1, OD450 nm
[43] = read-out: The results of antibiotic drug inhibiting cancer cell lines (cell viability analysis), MKN-45, MKN-45, repeated experiment
[44] = read-out: cell viability (survival rate), MKN-45, drug 10 μM, 72 hours, WST-1, OD450 nm

For Cc1ncc([N+](=O)[O-])n1CCO [Metronidazole (Flagyl), Metronidazole], the viability at 10 µM [1, 25] was 92.4%, the viability at 10 µM [1, 26] was 62% and the viability at 10 µM [2] was 92.3%. It also gave a viability at 10 µM [3] of 110%, a viability at 10 µM [4, 27] of 74.7% and a viability at 10 µM [4, 28] of 56.4%. The viability at 10 µM [5, 29] was 118%, the viability at 10 µM [5, 30] was 61.1% and the viability at 10 µM [6] was 68.2%. It also gave a viability at 10 µM [7, 31] of 94.1%, a viability at 10 µM [7, 32] of 105% and a viability [8] of 98.9%. For the same molecule, the viability at 10 µM [9] was 90.8%, the “inhibition effect on different cancer cell lines” value [10] was “significant inhibition effect” and the viability at 10 µM [11, 33] was 113%. It also gave a viability at 10 µM [11, 34] of 90.5%, a viability at 10 µM [12, 35] of 95.6% and a viability at 10 µM [12, 36] of 40.9%. The viability at 10 µM [13] was 112%, the viability at 10 µM [14] was 93.8% and the viability at 10 µM [15] was 95.8%. The viability at 10 µM [16] was 83.1%, the viability at 10 µM [17, 37] was 75.3% and the viability at 10 µM [17, 38] was 90.7%. The viability at 10 µM [18] was 99.6%, the viability at 10 µM [19] was 83.6% and the viability at 10 µM [20, 39] was 87.2%. For the same molecule, the viability at 10 µM [20, 40] was 94.9%, the viability at 10 µM [21, 41] was 97.7% and the viability at 10 µM [21, 42] was 36.5%. The viability at 10 µM [22] was 114%, the viability at 10 µM [23, 43] was 108% and the viability at 10 µM [23, 44] was 57.7%. For the same molecule, the viability at 10 µM [24] was 93.3%.
In the case of Clc1ccc(COC(Cn2ccnc2)c2ccc(Cl)cc2Cl)c(Cl)c1 (centres unmarked) [Miconazole nitrate], the viability at 10 µM [1, 25] was 102%, the viability at 10 µM [1, 26] was 41.8% and the viability at 10 µM [2] was 126%. For the same molecule, the viability at 10 µM [3] was 94.8%, the viability at 10 µM [4, 27] was 100% and the viability at 10 µM [4, 28] was 31.5%. The viability at 10 µM [5, 29] was 81.3%, the viability at 10 µM [5, 30] was 62.1% and the viability at 10 µM [6] was 80.7%. The viability at 10 µM [7, 31] was 108%, the viability at 10 µM [7, 32] was 104% and the viability [8] was 122%. The viability at 10 µM [9] was 41.4%, the “inhibition effect on different cancer cell lines” value [10] was “significant inhibition effect” and the viability at 10 µM [11, 33] was 114%. It also gave a viability at 10 µM [11, 34] of 51.1%, a viability at 10 µM [12, 35] of 116% and a viability at 10 µM [12, 36] of 30.4%. For the same molecule, the viability at 10 µM [13] was 69.6%, the viability at 10 µM [14] was 77.7% and the viability at 10 µM [15] was 80.6%. It also gave a viability at 10 µM [16] of 75.5%, a viability at 10 µM [17, 37] of 95.7% and a viability at 10 µM [17, 38] of 57.6%. The viability at 10 µM [18] was 64.2%, the viability at 10 µM [19] was 65.3% and the viability at 10 µM [20, 39] was 83.1%. The viability at 10 µM [20, 40] was 68.8%, the viability at 10 µM [21, 41] was 97.3% and the viability at 10 µM [21, 42] was 37.3%. The viability at 10 µM [22] was 117%, the viability at 10 µM [23, 43] was 99.8% and the viability at 10 µM [23, 44] was 45%. It also gave a viability at 10 µM [24] of 107%.
